Several values for one entry are separate records, joined by “and”; a condition that tells them apart may be missing. Equal values may be shown once. Numbered stars: 1 amine (or outer) side, 2 acyl side, 3 side chain; on linkers, the order of the positions; unused ones are H or OH. Bridge positions count the residues as written; N and C are the ends. Square brackets hold non-standard residues; d marks the D form. Peptide text beside a SMILES is read from it. * marks the point of attachment. Leu(3R-OH,Nα-propionyl) = CCC(=O)N[C@H](C(=O)*)[C@H](O)C(C)C; X1 = CC(C)[C@@H](O[*:3])[C@H](N[*:1])C(=O)[*:2]; NMeT = CN[C@H](C(=O)O)[C@@H](C)O; dPhLac = O=C(O)[C@H](O)Cc1ccccc1; NMeA = CN[C@@H](C)C(=O)O; NMeDha = C=C(NC)C(=O)O
Experiments:
[1] = system: ERK1/2 activation by AT1R; assay: Western blot of AT1R-mediated ERK1/2 phosphorylation; format: cell-based, human; settings: 50 μM
Experimental: (§1) HEK293SL cells (10^5 cells per well) were seeded in a poly-L-lysine-coated six-well plate and transiently transfected with 3 μg Flag-AT1R, HA-B2R or HA-β2AR and/or 500 ng Flag-MEK1-WT, Flag-MEK1-DD, Flag-BRAF-WT, Flag-BRAF-V600E, Flag-K-Ras-WT, Flag-K-Ras-G12V, HA-ARF6-WT, or HA-ARF6-T27N. Gαq/11 KO and βarr1/2 KO cells were seeded onto 100 mm dishes at a density of 10^6 cells per dish. Next day, cells were transfected with 3 μg AT1R alone or along with 500 ng of β-arrestin2 using PEI. After 18 h of transfection, cells were detached and re-seeded onto poly-L-lysine coated 12-well plates (~1.5–2 × 10^5cells/well) for subsequent experiments. Forty-eight hours post transfection, in a 37 °C water bath, cells were serum-starved for 30 min, pretreated with DMSO (0.1%) or compound 21/Rasarfin (50 µM or at indicated concentrations) for 30 min, then stimulated or not with the indicated ligand [AngII (1 µM), BK (1 µM), Iso (10 µM) or EGF (100 ng/ml)] at indicated times. Cells were put on ice, washed with PBS and solubilized in 2x laemmli buffer (250 mM Tris–HCl pH 6.8, 2% SDS (w/v), 10% glycerol (v/v), 0.01% bromophenol blue (w/v) and 5% β-mercaptoethanol (v/v)) by heating at 65 °C for 15 min. Lysates were resolved on 10 or 14% SDS-PAGE, transferred to nitrocellulose membranes and immunoblotted for p-ERK1/2, ERK1/2, p-Akt, Akt, HA, Myc, β-actin or FLAG. ImageLab 5.2 software was used to quantify the digital blots as fold of the phosphorylated protein over total protein, which were then normalized as indicated in the figure legends. Uncropped immunoblots are provided in the Source Data file.

MDA-MB-231 cells = assay: Cell viability assay (MTT), MDA-MB-231; format: cell-based, human; settings: for cell viability (MTT signal): S_Fig12f
Experimental: (§2) MDA-MB-231 breast cancer cells and A549 lung carcinomas (1500 cells in 150 μl/well) were seeded overnight on a clear 96-well plate. Twenty-four hours later, the cells were treated with 0.1% DMSO, or different concentrations of Rasarfin (as indicated), or 10 µM of 21.4, 21.8 (MDA-MB-231 breast cancer cells) or Doxorubicin for the indicated times at 37 °C. At each time point, 10 μl of 5 mg/ml MTT was added to each well and the plates were incubated for an additional 4 h at 37 °C. The absorbance at 590 nm was measured by plate reader. Experiments were done in triplicate and repeated three times.

A549 cells = assay: Cell viability assay (MTT), A549; format: cell-based, human; settings: Doxorubicin
Experimental: as §2

MEK1 = assay: Western blot of ERK1/2 phosphorylation induced by MEK1 (MEK1-WT / MEK1-DD); format: cell-based, human
Experimental: as §1

Gαq = target: T1, Gαq (Homo sapiens, UniProt P50148); assay: Gαq BRET sensor, AT1R-mediated; format: cell-based
T1 construct: expressed in transfected cells; host or cells: HEK293SL
T1 sequence (P50148 whole entry): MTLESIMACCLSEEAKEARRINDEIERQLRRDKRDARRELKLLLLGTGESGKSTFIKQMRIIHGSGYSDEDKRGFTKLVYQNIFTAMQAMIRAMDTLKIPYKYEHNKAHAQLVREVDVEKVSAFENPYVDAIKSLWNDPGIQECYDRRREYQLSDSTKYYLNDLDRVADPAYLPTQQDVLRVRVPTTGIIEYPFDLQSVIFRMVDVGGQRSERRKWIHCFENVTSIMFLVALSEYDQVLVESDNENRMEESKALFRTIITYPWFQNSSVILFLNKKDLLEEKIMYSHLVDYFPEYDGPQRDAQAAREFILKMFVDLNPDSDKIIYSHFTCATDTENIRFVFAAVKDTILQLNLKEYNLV
T1 sequence (P62873 whole entry partner): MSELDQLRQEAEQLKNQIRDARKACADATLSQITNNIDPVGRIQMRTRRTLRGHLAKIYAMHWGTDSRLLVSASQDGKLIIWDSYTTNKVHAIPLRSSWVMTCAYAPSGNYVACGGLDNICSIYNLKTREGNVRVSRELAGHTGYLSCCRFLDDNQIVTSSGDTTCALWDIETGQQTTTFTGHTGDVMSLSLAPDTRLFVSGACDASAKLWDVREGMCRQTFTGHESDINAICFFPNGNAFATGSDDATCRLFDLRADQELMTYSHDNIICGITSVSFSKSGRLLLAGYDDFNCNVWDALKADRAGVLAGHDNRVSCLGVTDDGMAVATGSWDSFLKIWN
T1 sequence (P63211 2-71 partner limits assumed): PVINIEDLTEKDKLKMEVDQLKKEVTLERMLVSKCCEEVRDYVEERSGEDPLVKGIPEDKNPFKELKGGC
Experimental: HEK293SL cells were seeded at a density of 7.5 × 10^5 cells per 100-mm dish and 24 h later, transiently transfected as such. For receptor internalization experiments, cells were transfected with 0.12 μg AT1R-RlucII, B2R-RlucII, or β2AR-RlucII and 0.48 μg of either rGFP-CAAX (to assess removal from the PM) or rGFP-FYVE (to assess accumulation in the endosomes). For β-arrestin recruitment assays, cells were transfected with 0.48 μg of receptor-YFP along with 0.12 μg of β-arrestin-RlucII. For β-arrestin/AP-2 binding experiments, cells were transfected with 1 μg Flag-AT1R, 1 μg β2-Adaptin-YFP, and 0.12 μg β-arrestin2-RlucII. For G protein activation, cells were transfected with 3 μg of sp-Flag-AT1R along with either 4.5 μg of the Gαq-polycistronic BRET sensor or 0.24 μg of the Gαi3-RlucII and 0.6 μg of GFP10-Gγ2 and Gβ1 sensors or 0.12 μg PKN-RBD-RlucII and 0.48 μg of rGFP-CAAX. For PKC activation, cells were transfected with 3 μg of sp-Flag-AT1R and 0.18 μg of the PKC sensor. For GTPase activation experiments, cells were transfected with 1 μg Flag-AT1R, 0.48 μg of rGFP-CAAX, and either 0.12 μg of GGA3-PBD-RlucII, PAK-CRIB-RlucII or Raf-RBD-RlucII. For biosensor validation experiments, cells were additionally transfected with 500 ng Flag-K-Ras-WT, Flag-K-Ras-G12V, Flag-K-Ras-SOS-CAAX, HA-ARF6-WT, HA-ARF6-T27N, Myc-Rac1-WT, Myc-Rac1-Q61L or Myc-Rac1-T17N. For PI3K/Akt activation experiments, cells were transfected with 0.48 μg of rGFP-CAAX and 0.12 μg of Akt (PH)-RlucII. After 18 h of transfection, the media was replaced and cells were divided for subsequent experiments. Cells were detached and seeded onto poly-L-ornithine-coated 96-well flat white bottom plates (BrandTech Scientific) at a density of 2.5 × 10^4 cells per well in media. […] For kinetics of β-arrestin recruitment or β-arrestin binding to receptor and AP-2 experiments, cells were serum starved for 30 min, pretreated with 21 (50 µM) or Barbadin (100 µM) for 30 min, stimulated with 100 nM AngII or 1 µM BK and BRET signals were monitored at indicated times using a Victor X Light plate reader (PerkinElmer). […] The BRET ratio was determined by calculating the ratio of the light emitted by YFP over the light emitted by the RlucII. […] For the kinetics of GTPase and PI3K/Akt activation, cells were serum starved, pretreated with 21 (50 µM) or Wortmannin (200 nM) for 30 min, stimulated with ligand (100 nM AngII or 100 ng/ml EGF) and BRET signals were monitored at indicated times. […] BRET signals were monitored using a Synergy2 (BioTek) microplate reader and coelenterazine 400a (final concentrations of 5 µM) added 3–5 min prior to BRET measurements. […] The BRET ratio was determined by calculating the ratio of the light emitted by rGFP/GFP10 over the light emitted by the RlucII.

PI3K/Akt = PI3K/Akt BRET sensor (Akt (PH)-RlucII / rGFP-CAAX), EGFR-mediated; format: cell-based, human
Experimental: HEK293SL cells were seeded at a density of 7.5 × 10^5 cells per 100-mm dish and 24 h later, transiently transfected as such. For receptor internalization experiments, cells were transfected with 0.12 μg AT1R-RlucII, B2R-RlucII, or β2AR-RlucII and 0.48 μg of either rGFP-CAAX (to assess removal from the PM) or rGFP-FYVE (to assess accumulation in the endosomes). For β-arrestin recruitment assays, cells were transfected with 0.48 μg of receptor-YFP along with 0.12 μg of β-arrestin-RlucII. For β-arrestin/AP-2 binding experiments, cells were transfected with 1 μg Flag-AT1R, 1 μg β2-Adaptin-YFP, and 0.12 μg β-arrestin2-RlucII. For G protein activation, cells were transfected with 3 μg of sp-Flag-AT1R along with either 4.5 μg of the Gαq-polycistronic BRET sensor or 0.24 μg of the Gαi3-RlucII and 0.6 μg of GFP10-Gγ2 and Gβ1 sensors or 0.12 μg PKN-RBD-RlucII and 0.48 μg of rGFP-CAAX. For PKC activation, cells were transfected with 3 μg of sp-Flag-AT1R and 0.18 μg of the PKC sensor. For GTPase activation experiments, cells were transfected with 1 μg Flag-AT1R, 0.48 μg of rGFP-CAAX, and either 0.12 μg of GGA3-PBD-RlucII, PAK-CRIB-RlucII or Raf-RBD-RlucII. For biosensor validation experiments, cells were additionally transfected with 500 ng Flag-K-Ras-WT, Flag-K-Ras-G12V, Flag-K-Ras-SOS-CAAX, HA-ARF6-WT, HA-ARF6-T27N, Myc-Rac1-WT, Myc-Rac1-Q61L or Myc-Rac1-T17N. For PI3K/Akt activation experiments, cells were transfected with 0.48 μg of rGFP-CAAX and 0.12 μg of Akt (PH)-RlucII. After 18 h of transfection, the media was replaced and cells were divided for subsequent experiments. Cells were detached and seeded onto poly-L-ornithine-coated 96-well flat white bottom plates (BrandTech Scientific) at a density of 2.5 × 10^4 cells per well in media. The next day, cells were washed once with Tyrode’s buffer (140 mM NaCl, 2.7 mM KCl, 1 mM CaCl2, 12 mM NaHCO3, 5.6 mM D-glucose, 0.5 mM MgCl2, 0.37 mM NaH2PO4, 25 mM HEPES, pH 7.4) and left in Tyrode’s buffer. For kinetics of β-arrestin recruitment or β-arrestin binding to receptor and AP-2 experiments, cells were serum starved for 30 min, pretreated with 21 (50 µM) or Barbadin (100 µM) for 30 min, stimulated with 100 nM AngII or 1 µM BK and BRET signals were monitored at indicated times using a Victor X Light plate reader (PerkinElmer). Coelenterazine H (final concentration of 5 µM) was added 3–5 min prior to BRET measurements. Filter set was 460/80 nm and 535/30 nm for detecting the RlucII Renilla luciferase (donor) and YFP (acceptor) light emissions, respectively. The BRET ratio was determined by calculating the ratio of the light emitted by YFP over the light emitted by the RlucII. For G protein activation, cells were serum starved, pretreated with compounds for 30 min, stimulated with 100 nM AngII for 2 min (Gαq, Gαi3, and Rho sensors) or 5 min (PKC sensor). For the kinetics of GTPase and PI3K/Akt activation, cells were serum starved, pretreated with 21 (50 µM) or Wortmannin (200 nM) for 30 min, stimulated with ligand (100 nM AngII or 100 ng/ml EGF) and BRET signals were monitored at indicated times. For concentration-response curves, cells were serum-starved, pretreated with various concentrations of compounds for 30 min and stimulated with ligand (100 nM AngII, 1 µM BK, 10 µM Isoproterenol (Iso) or 100 ng/ml EGF) in Tyrode’s buffer for 30 min for receptor internalization, 10 min for ARF6, 2 min for Rac and Rho activation and 5 min for Ras activation and PI3K/Akt activation. BRET signals were monitored using a Synergy2 (BioTek) microplate reader and coelenterazine 400a (final concentrations of 5 µM) added 3–5 min prior to BRET measurements. Filter set was 410/80 nm and 515/30 nm for detecting the RlucII Renilla luciferase (donor) and rGFP/GFP10 (acceptor) light emissions, respectively. The BRET ratio was determined by calculating the ratio of the light emitted by rGFP/GFP10 over the light emitted by the RlucII.

## CCC(=O)N1CCN(c2ccc(NC(=O)c3cc4ccccc4o3)cc2Cl)CC1 [Compound 21.2]
[1]
  inhibition of AT1R-mediated ERK1/2 (MAPK) activation (Fig. 8b): lost their ability to inhibit MAPK

## COc1cccc2c1C(=O)c1c(O)c3c(c(O)c1C2=O)C[C@@](O)(C(=O)CO)C[C@@H]3O[C@H]1C[C@H](N)[C@H](O)[C@H](C)O1 [Doxorubicin, reference compound]
MDA-MB-231 cells; Doxorubicin 10 µM
  MDA-MB-231 cell viability (MTT): potently killed cells
MDA-MB-231 cells; 24h
  cell viability (MTT signal): 0.213 and 0.2235 and 0.2068
MDA-MB-231 cells; 48h
  cell viability (MTT signal): 0.2026 and 0.1628 and 0.1313
MDA-MB-231 cells; 72h
  cell viability (MTT signal): 0.1199 and 0.1728 and 0.1331
A549 cells; 24h
  cell viability (MTT signal): 0.213 and 0.2235 and 0.2068
A549 cells; 48h
  cell viability (MTT signal): 0.2026 and 0.1628 and 0.1313
A549 cells; 72h
  cell viability (MTT signal): 0.1331 and 0.1199 and 0.1728

## O=C(NOCC1CC1)c1ccc(F)c(F)c1Nc1ccc(I)cc1Cl [PD184352, reference compound]
MEK1; Flag-MEK1 DD
  Predicted (LS) mean diff. DMSO vs. compound (Bonferroni's multiple comparisons test): 3.803
MEK1; Flag-MEK1 WT
  ERK1/2 phosphorylation relative to mock (S_Fig.4c): 0.4899 and 0.8 and 0.4446
  Predicted (LS) mean diff. DMSO vs. compound (Bonferroni's multiple comparisons test): 0.8426
MEK1; mock
  ERK1/2 phosphorylation relative to mock (S_Fig.4c): 1
  Predicted (LS) mean diff. DMSO vs. compound (Bonferroni's multiple comparisons test): 0

## C=C1C(=O)N[C@@H](C)C(=O)N(C)[C@@H](C)C(=O)N[C@@H]([C@H](OC(=O)[C@@H](NC(=O)CC)[C@H](O)C(C)C)C(C)C)C(=O)N(C)[C@@H]([C@@H](C)OC)C(=O)O[C@H](C(C)C)[C@H](NC(C)=O)C(=O)O[C@H](Cc2ccccc2)C(=O)N1C [UBO-QIC, reference compound] (Ac-[X1][dPhLac][NMeDha]A[NMeA][X1](Leu(3R-OH,Nα-propionyl))[NMeT](Me); ester 1-C)
Gαq
  Gq BRET sensor signal (S_Fig.4b), single experiments: 0.0505 and 0.06125 and 0.044

## COC[C@H]1OC(=O)c2coc3c2[C@@]1(C)C1=C(C3=O)[C@@H]2CCC(=O)[C@@]2(C)C[C@H]1OC(C)=O [Wortmannin, reference compound]
PI3K/Akt; Wortmannin-treated, Log [EGF] (ng/ml) -12
  EGF-promoted BRET: 0

## EGF
PI3K/Akt; EGF 100 ng/ml, time 0 min
  EGF-promoted BRET: 0
PI3K/Akt; EGF 100 ng/ml, time 1 min
  EGF-promoted BRET: 0.3827 and 0.39
PI3K/Akt; EGF 100 ng/ml, time 2 min
  EGF-promoted BRET: 0.5443 and 0.5547
PI3K/Akt; EGF 100 ng/ml, time 3 min
  EGF-promoted BRET: 0.521 and 0.605
PI3K/Akt; EGF 100 ng/ml, time 4 min
  EGF-promoted BRET: 0.6008 and 0.512 and 0.5428
PI3K/Akt; EGF 100 ng/ml, time 5 min
  EGF-promoted BRET: 0.5307 and 0.4867 and 0.5263

Source: paper PMC8333425, “Discovery of a dual Ras and ARF6 inhibitor from a GPCR endocytosis screen” (Nature Communications, 2021)
